For assay [1], the system named is iceberg and Romaine lettuce midribs. The experiment in a line: Visual (subjective) pink rib development in wounded, immersed lettuce midribs stored at 5° C. It is filed as in vivo. The following applies: for effect on pink rib discoloration: iceberg and Romaine; for duration of inhibition of pink rib development: 30 s immersion, 5° C. On the procedure: Six preliminary experiments were performed to determine treatment conditions for the three final experiments reported here. It was determined that the method developed by Cantwell (2016) induced pink rib discoloration in lettuce midribs during storage at 5° C. via mimicking mechanical damage and was, therefore, selected for use in all preliminary and final tests. […] Concentrations evaluated were: L-cysteine (0.4, 0.8, 2.1, 4.1, 8.3 mM), naringenin (0.2, 0.4, 0.9, 1.8, 3.7 mM), serotonin (2.8, 5.7 mM), and melatonin (0.2, 0.4, 1.1, 2.2, 4.3 mM) (data not presented). […] Therefore, this study employed the one or two concentrations for each compound with the greatest potential efficacy in three independent tests, Test 1 to 3 (Table 1).
For Test 1, the evaluations for pink rib development, protein quantification, and enzyme activity were conducted with Romaine and iceberg lettuce heads (36 heads per type; cultivars unknown) purchased (February 2020) upon arrival at a local grocery store in Gainesville, FL, and immediately transported to the Postharvest Horticulture Laboratory at the University of Florida in Gainesville, FL. For Test 2, metabolite extraction and detection were conducted with commercially grown, harvested, and cooled Romaine (‘Tall Guzmaine’) and iceberg (‘Chosen’) lettuce (December 2020) grown in Belle Glade, FL. For Test 3, untargeted metabolomics was performed using commercially grown, harvested, and cooled Romaine (‘Manatee’) lettuce grown in Belle Glade, FL (April 2021). To keep the lettuce head samples cool while preventing freeze damage during transport, a 3- to 6-inch layer of crushed ice was placed on the bottom of each 114-L cooler. A piece of waxed, corrugated fiberboard was placed on top of the ice prior to packing with the lettuce samples for transport the same day to the Postharvest Horticulture Laboratory in Gainesville (approximately 4 h distant).
(§1) In all tests, experimental setup began immediately upon arrival to the laboratory. 90 outer leaves were randomly selected from 18 to 22 lettuce heads that met commercial and damage-free quality standards. A midrib segment (12.5 cm) was excised from the center of each leaf and excess leaf blade tissue was trimmed parallel to the midrib. This procedure was adapted from the wounding procedure of Cantwell (2016). Each midrib was then partially sliced transversally at 1.3-cm increments along the midrib. Midribs (n=15) were immediately immersed for 30 s in one of five treatment solutions: deionized water (wounded control), L-cysteine (4.1 mM), naringenin (1.8 mM) with 20% dimethyl sulfoxide (DMSO), serotonin (2.8 or 5.7 mM) or melatonin (4.3 mM) with 0.50% DMSO. Immediately following immersion, the midribs for each treatment were patted dry using paper towels and placed (n=5) in a breathable, high-density polyethylene bag (n=3) (Narrow Profile Produce Bags [14×18 inches] Model No. S-19156, Uline®, Pleasant Prairie, WI). Unwounded control midribs were stored in the same manner. To allow for direct comparison, each cut site on each midrib was assigned an initial discoloration value on day 1 based on the coloration of the rib. Samples were stored at 5° C. with 95-98% relative humidity (RH) for 5 d, simulating commercial storage.
All chemicals were of laboratory or reagent grade from Alfa Aesar (Thermo Fisher Scientific, Ward Hill, MA, USA) or Phyto Technology Laboratories (Shawnee Mission, KS, USA). L-cysteine (4.1 mM) solution was prepared by dissolving […] in 100 ml deionized water. Naringenin (1.8 mM) solution was prepared by dissolving […] in 20 mL of DMSO and diluting to a 100 mL volume with deionized water. A stock solution of serotonin (5.7 mM) was prepared by dissolving 100 mg of serotonin in 100 ml of deionized water; a second solution of serotonin (2.8 mM) was prepared by diluting the stock solution two-fold with deionized water. […]

The test system is the same in assay [2]. The experiment in a line: Objective pink rib severity: a* value by RGB image analysis of cut sites. It is filed as in vivo.
Description: as §1
Objective evaluations were also made after 1, 3, and 5 d by capturing an image of each wounded midrib using a digital camera (Nikon D5200, Nikon, Melville, NY, USA) under full spectrum LED lighting (Sunco Lighting, Valencia, CA, USA) with 4100 Lumens at a distance of 1.12 m. Only unwounded and treated (L-cysteine or melatonin) midribs from Test 1 were measured using this method. The camera settings were on manual mode ISO400, shutter speed 1/125, aperture 5.6, and no zoom or flash; distance from the tissue was approximately 18 inches. The white balance of the camera was set with a gray card prior to each imaging session. GNU Image Manipulation Program (GIMP, version 2.10.14; The GIMP Project c/o GNOME Foundation, Orinda, CA, USA) was used to isolate pixels from an area 1 mm in width along the length of each cut site. Because a cut site is required as a guide for pixel extraction, no data was collected from images of the unwounded midribs.
Isolated pixels were converted from the RGB to the L*a*b* color space (Commission Internationale de l'Elcairage) with the “convertColor” function in R version 4.0.0 (R Core Team, 2020), using Illuminant D65 as the white reference. The mean a* value was calculated for each group of isolated cut site pixels at each time point. In the L*a*b* color space, […] the degree of redness (+) or greenness (−); thus, the mean a* at each cut site quantified the severity of pink rib discoloration. R was also applied to subset the data, to ensure that the cut sites chosen for further analysis had similar initial color. The a* values ranged from −3 to 0 for iceberg lettuce and −6 to −3 for Romaine.
The imaging data (a* value), enzyme activity (PAL and PPO), and metabolite (chlorogenic acid) results were expressed as mean±standard error and analyzed by lettuce type (iceberg or Romaine). For imaging data, an unpaired t-test was used to identify differences within a treatment throughout storage and among treatment groups at each time point. Treatment groups were defined as wounded, unwounded, L-cysteine, and melatonin. […] Analyses of variance were performed for PAL, PPO, and metabolite analyses using SAS software (version 9.4; SAS Institute, Cary, NC) to identify differences among treatment groups. Differences among treatments groups were separated by Tukey's Honest Significant Difference (HSD) test with a confidence level of 95%. The correlation between visual rating and a* value was evaluated for significance via an F-test, from which the P-value of the correlation was calculated.

SMILES strings stand for the structures. Entries after “also recorded” stand apart in the source; their conditions may differ.

For `N[C@@H](CS)C(=O)O` [L-cysteine], the “effect on pink rib discoloration” value in assay [1] (L-cysteine 4.1 mM, up to 5 d at 5° C., vs wounded control) is “negligible effect on reducing pink rib; also recorded: equal or greater discoloration; also recorded: significantly higher discoloration than the control after 5 d; also recorded: ineffective in reducing pink rib; also recorded: neither PPO activity nor pink rib expression were reduced”. Besides, the “change of a* value” is listed as “increase” in assay [2] (L-cysteine 4.1 mM, Romaine, after 3 d (P=0.0242)); “increased” in assay [2] (L-cysteine 4.1 mM, iceberg, after 3 d (P=0.0242)); “increased” in assay [2] (L-cysteine 4.1 mM, iceberg, after 5 d (P=0.00059)).

In the case of `COc1ccc2[nH]cc(CCNC(C)=O)c2c1` [melatonin], the “duration of inhibition of pink rib development” value worked out at 3 days in assay [1] (melatonin 4.3 mM, Romaine, vs wounded control) and 5 days in assay [1] (melatonin 4.3 mM, iceberg, vs wounded control). For the same compound, the “pink rib discoloration (visual)” value in assay [1] (melatonin 4.3 mM, Romaine, over 5 d at 5° C. (P=0.0058)) is on record as “slight (2=slight)”. Also, the “effect on pink rib discoloration” value in assay [1] (melatonin 4.3 mM, 5 d at 5° C., vs controls) is reported as “equal to or similar to unwounded controls; also recorded: dramatically less pink rib discoloration”. Besides, the “change of a* value” in assay [2] (melatonin 4.3 mM, Romaine, between days 3 and 5) was “increasing”; in assay [2] (melatonin 4.3 mM, iceberg, throughout 5 d storage) it was “did not increase throughout storage”. Besides, the “a* value versus control” value in assay [2] (melatonin 4.3 mM, Romaine, day 5, control mean 1.49) was “no longer significantly different”. Besides, the “mean a* value” in assay [2] (melatonin 4.3 mM, Romaine, day 5 at 5° C.) is −0.67. In addition, the “a* values versus control treatments, overall” value in assay [2] (melatonin, iceberg and Romaine) is on record as “significantly lower a* values”.
